pIC50: −log10 of the molar value.
target: EHMT2 (Euchromatic histone-lysine N-methyltransferase 2) (Homo sapiens (Human), UniProt Q96KQ7); assay: EHMT2 enzyme inhibition, LANCE TR-FRET; type: biochemical; settings: histone H3 peptide, 1 hour at room temperature
Description: In order to analyze the enzyme inhibitory efficacy of the compounds of Examples 1 to 89, EHMT2 (Euchromatic histone-lysine N-methyltransferase 2) enzyme activity was measured using the LANCE TR-FRET™ analysis method of Perkin Elmer. When the EHMT2 enzyme is activated, the 9th lysine residue of the biotinylated-histone peptide is methylated and the EU-conjugated antibody is combined to the methylated histone peptide. Then, when the complex is irradiated with light of excitation wavelength, the complex emits light having a wavelength of 665 nm through FRET phenomenon. Accordingly, fluorescence was measured, and IC50 values were calculated through a software to evaluate the EHMT2 enzyme activity inhibitory effect of the compounds of Examples 1 to 89.
Specific experimental methods are as follows. First, the compounds of Examples 1 to 89 of 1 nM to 100 μM (4× conc.) were put into a 384 well plate (25 μL/well), and 2 μM EEMT2/G9a enzyme (4× conc.) was put into the 384 well plate (25 μL/well). The plate was then centrifuged at 1,500 rpm for 5 seconds after sealing the plate with plate sealing foil. After incubating the EHMT2/G9a enzyme, SAM, and the compounds of Examples above at room temperature for 10 minutes, 2 μM histone H3 peptide (4× conc.) was added to the 384-well plate (25 μL/well). After sealing the plate with plate sealing foil and centrifuging at 1,500 rpm for 5 seconds, an enzymatic reaction was performed at room temperature for 1 hour. Upon completion of the enzyme reaction, 5 μL each of 200 nM Ulight™-Streptavidin (4× conc.) and 8 nM Eu-antibody (4× conc.) was added to each well of the plate. The plate was sealed with plate sealing foil, centrifuged at 1,500 rpm for 5 seconds and reacted at room temperature for 1 hour. The signal values were measured with Envision (Ex 320 nm, Em 665 nm), and all background values obtained by reacting without enzyme were deleted from the measured raw data values. Then, the EHMT2 enzyme activity inhibitory effect of the compounds of Examples 1 to 89 was converted into % values, and compared with the EHMT2 activity when treated with 4% DMSO vehicle (=0 nM compound) as 100%.

Sequence of EHMT2 (Euchromatic histone-lysine N-methyltransferase 2) (Q96KQ7 whole entry): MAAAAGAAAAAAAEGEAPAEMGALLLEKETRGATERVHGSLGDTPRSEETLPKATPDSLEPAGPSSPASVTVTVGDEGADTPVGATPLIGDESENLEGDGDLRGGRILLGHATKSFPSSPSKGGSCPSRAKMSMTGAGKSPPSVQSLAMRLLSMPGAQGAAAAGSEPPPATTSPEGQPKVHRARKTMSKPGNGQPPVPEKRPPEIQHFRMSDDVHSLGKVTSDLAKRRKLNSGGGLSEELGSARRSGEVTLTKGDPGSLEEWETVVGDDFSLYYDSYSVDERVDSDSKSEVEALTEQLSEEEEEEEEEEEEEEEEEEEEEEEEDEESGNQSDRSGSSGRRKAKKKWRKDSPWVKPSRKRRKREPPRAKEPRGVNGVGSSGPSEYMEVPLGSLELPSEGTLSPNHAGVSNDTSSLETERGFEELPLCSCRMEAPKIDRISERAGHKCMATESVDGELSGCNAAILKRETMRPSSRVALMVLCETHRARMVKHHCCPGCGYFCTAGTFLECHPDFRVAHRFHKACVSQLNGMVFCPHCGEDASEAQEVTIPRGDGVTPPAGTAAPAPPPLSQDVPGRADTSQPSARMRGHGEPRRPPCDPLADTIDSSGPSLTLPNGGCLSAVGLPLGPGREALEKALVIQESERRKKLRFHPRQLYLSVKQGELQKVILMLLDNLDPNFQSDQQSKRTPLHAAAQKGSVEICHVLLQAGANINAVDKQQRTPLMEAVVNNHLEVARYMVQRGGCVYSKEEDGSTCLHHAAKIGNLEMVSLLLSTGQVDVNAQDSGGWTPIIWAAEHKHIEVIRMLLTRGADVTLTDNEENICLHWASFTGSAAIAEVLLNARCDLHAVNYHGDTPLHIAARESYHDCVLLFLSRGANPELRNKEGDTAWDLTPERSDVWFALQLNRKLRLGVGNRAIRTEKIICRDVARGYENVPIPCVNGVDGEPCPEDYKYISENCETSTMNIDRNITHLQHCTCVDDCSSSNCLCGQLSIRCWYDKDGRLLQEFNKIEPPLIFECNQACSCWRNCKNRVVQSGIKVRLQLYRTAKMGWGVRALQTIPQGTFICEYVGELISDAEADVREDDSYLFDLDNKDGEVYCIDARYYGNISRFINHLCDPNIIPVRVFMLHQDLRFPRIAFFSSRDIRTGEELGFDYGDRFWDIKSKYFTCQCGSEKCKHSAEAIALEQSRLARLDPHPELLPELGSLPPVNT

First: COc1cc2c(NC3CCN(C(C)C)CC3)nc(N3CCC(N(C)C)CC3)nc2cc1C#CCCN(C)C [Example 11, 7-(4-(dimethylamino)-1-butyne-1-yl)-2-(4-(dimethylamino)piperidine-1-yl)-N-(1-isopropylpiperidine-4-yl)-6-methoxyquinazoline-4-amine]
Second: COc1cc2c(NC3CCN(C(C)C)CC3)nc(N3CCCC3)nc2cc1C#CCCN(C)C [Example 6, 7-(4-(dimethylamino)-1-butyne-1-yl)-N-(1-isopropylpiperidine-4-yl)-6-methoxy-2-(pyrrolidine-1-yl)quinazoline-4-amine]
The pIC50 of the first is lower: 5.00 to 6.00 for the first, over 7.00 for the second. The second is the more potent here.

COc1cc2c(NC3CCN(C(C)C)CC3)nc(N3CCCCC3)nc2cc1C#CCCN1CCCC1 [Example 16, N-(1-isopropylpiperidine-4-yl)-6-methoxy-2-(piperidine-1-yl)-7-(4-(pyrrolidine-1-yl)-1-butyne-1-yl)quinazoline-4-amine] and COc1cc2c(NC3CCN(C(C)C)CC3)nc(N3CCCC3)nc2cc1C#CCCN1CCCCC1 [Example 43, N-(1-isopropylpiperidine-4-yl)-6-methoxy-7-(4-(piperidine-1-yl)-1-butyne-1-yl)-2-(pyrrolidine-1-yl)quinazoline-4-amine] cannot be ordered by pIC50: over 7.00 for the first, over 7.00 for the second.

COc1cc2c(NC3CCN(CCO)CC3)nc(N3CCCCC3)nc2cc1C#CCCN1CCCC1 [Example 69, 2-(4-((6-methoxy-2-(piperidine-1-yl)-7-(4-(pyrrolidine-1-yl)-1-butyne-1-yl)quinazoline-4-yl)amino)piperidine-1-yl)ethanol] and CCCN1CCC(Nc2nc(N3CCCC3)nc3cc(C#CCCN4CCCC4)c(OC)cc23)CC1 [Example 68, 6-methoxy-N-(1-propylpiperidine-4-yl)-2-(pyrrolidine-1-yl)-7-(4-(pyrrolidine-1-yl)-1-butyne-1-yl)quinazoline-4-amine] cannot be ordered by pIC50: over 7.00 for the first, over 7.00 for the second.

COc1cc2c(N[C@@H]3CCCN(Cc4ccccc4)C3)nc(N3CCCCC3)nc2cc1C#CCCN(C)C [Example 19, (R)-N-(1-benzylpiperidine-3-yl)-7-(4-(dimethylamino)-1-butyne-1-yl)-6-methoxy-2-(piperidine-1-yl)quinazoline-4-amine] and COc1cc2c(NC3CCCCC3)nc(N3CCCCC3)nc2cc1C#CCCN(C)C [Example 23, N-cyclohexyl-7-(4-(dimethylamino)-1-butyne-1-yl)-6-methoxy-2-(piperidine-1-yl)quinazoline-4-amine] fall in the same range of pIC50: 4.00 to 5.00 for the first, 4.00 to 5.00 for the second.

CCN1CCC(Nc2nc(N3CCCCC3)nc3cc(C#CCCN(C)C)c(OC)cc23)CC1 [Example 50, 7-(4-(dimethylamino)-1-butyne-1-yl)-N-(1-ethylpiperidine-4-yl)-6-methoxy-2-(piperidine-1-yl)quinazoline-4-amine] and CCN1CCC(Nc2nc(N3CCCC3)nc3cc(C#CCCN4CCCC4)c(OC)cc23)CC1 [Example 64, N-(1-ethylpiperidine-4-yl)-6-methoxy-2-(pyrrolidine-1-yl)-7-(4-(pyrrolidine-1-yl)-1-butyne-1-yl)quinazoline-4-amine] cannot be ordered by pIC50: over 7.00 for the first, over 7.00 for the second.

COc1cc2c(NC3CCN(C(C)C)CC3)nc(N3CCCN(C)CC3)nc2cc1C#CCCN1CCCCC1 [Example 45, N-(1-isopropylpiperidine-4-yl)-6-methoxy-2-(4-methyl1,4-diazepane-1-yl)-7-(4-(piperidine-1-yl)-1-butyne-1-yl)quinazoline-4-amine] and COc1cc2c(NC3CCN(C(C)C)CC3)nc(N3CCCCCC3)nc2cc1C#CCCN1CCCC1 [Example 36] cannot be ordered by pIC50: over 7.00 for the first, over 7.00 for the second.

First: CCN(CC)CCC#Cc1cc2nc(N3CCCCC3)nc(NC3CCN(C(C)C)CC3)c2cc1OC [Example 13, 7-(4-(diethylamino)-1-butyne-1-yl)-N-(1-isopropylpiperidine-4-yl)-6-methoxy-2-(piperidine-1-yl)quinazoline-4-amine]
Second: COc1cc2c(NC3CCN(C(C)C)CC3)nc(N3CCN(C)CC3)nc2cc1C#CCCN(C)C [Example 7, 7-(4-(dimethylamino)-1-butyne-1-yl)-N-(1-isopropylpiperidine-4-yl)-6-methoxy-2-(4-methylpiperazine-1-yl)quinazoline-4-amine]
The pIC50 of the first is lower: 5.00 to 6.00 for the first, 6.00 to 7.00 for the second. The second is the more potent here.

CCN1CCC(Nc2nc(N3CCCN(C)CC3)nc3cc(C#CCCN4CCCC4)c(OC)cc23)CC1 [Example 65, N-(1-ethylpiperidine-4-yl)-6-methoxy-2-(4-methyl-1,4-diazepane-1-yl)-7-(4-(pyrrolidine-1-yl)-1-butyne-1-yl) quinazoline-4-amine] and CCN1CCC(Nc2nc(N3CC[C@H](F)C3)nc3cc(C#CCCN4CCCC4)c(OC)cc23)CC1 [Example 72, (S)-N-(1-ethylpiperidine-4-yl)-2-(3-fluoropyrrolidine-1-yl)-6-methoxy-7-(4-(pyrrolidine-1-yl)-1-butyne-1-yl)quinazoline-4-amine] cannot be ordered by pIC50: over 7.00 for the first, over 7.00 for the second.

First: COc1cc2c(NC3CCN(C(C)C)CC3)nc(N3CCC4(CCCC4)C3)nc2cc1C#CCCN1CCCCC1 [Example 41, N-(1-isopropylpiperidine-4-yl)-6-methoxy-7-(4-(piperidine-1-yl)-1-butyne-1-yl)-2-(2-azaspiro[4.4]nonane-2-yl)quinazoline-4-amine]
Second: COc1cc2c(NC3CCN(C(C)C)CC3)nc(N3CCC4(CCCC4)C3)nc2cc1C#CCCN1CCCC1 [Example 40, N-(1-isopropylpiperidine-4-yl)-6-methoxy-7-(4-(pyrrolidine-1-yl)-1-butyne-1-yl)-2-(2-azaspiro[4.4]nonane-2-yl)quinazoline-4-amine]
The pIC50 of the first is lower: 5.00 to 6.00 for the first, 6.00 to 7.00 for the second.

COc1cc2c(NC3CCN(C4CC4)CC3)nc(N3CCCCC3)nc2cc1C#CCCN1CCCC1 [Example 53, N-(1-cyclopropylpiperidine-4-yl)-6-methoxy-2-(piperidine-1-yl)-7-(4-(pyrrolidine-1-yl)-1-butyne-1-yl)quinazoline-4-amine] and COc1cc2c(NC3CCN(C4CC4)CC3)nc(N3CC[C@H](F)C3)nc2cc1C#CCCN1CCCC1 [Example 75, (S)-N-(1-cyclopropylpiperidine-4-yl)-2-(3-fluoropyrrolidine-1-yl)-6-methoxy-7-(4-(pyrrolidine-1-yl)-1-butyne-1-yl)quinazoline-4-amine] cannot be ordered by pIC50: over 7.00 for the first, over 7.00 for the second.

Compared with COc1cc2c(NC3CCN(C(C)C)CC3)nc(N3C[C@@H]4C[C@@H]4[C@@H]3CO)nc2cc1C#CCCN(C)C [Example 10, ((1S,2R,5R)-3-(7-(4-(dimethylamino)-1-butyne-1-yl)-4-((1-isopropylpiperidine-4-yl)amino)-6-methoxyquinazoline-2-yl)-3-azabicyclo[3.1.0]hexane-2-yl)methanol], COc1cc2c(NC3CCN(C(C)C)CC3)nc(N3C[C@@H]4C[C@@H]4[C@@H]3CO)nc2cc1C#CCCN1CCCC1 [Example 46, ((1S,2R,5R)-3-(4-((1-isopropylpiperidine-4-yl)amino)-6-methoxy-7-(4-(pyrrolidine-1-yl)-1-butyne-1-yl)quinazoline-2-yl)-3-azabicyclo[3.1.0]hexane-2-yl)methanol] is higher in pIC50: 6.00 to 7.00 for the first, over 7.00 for the second. The second is the more potent here.

COc1cc2c(NCCc3ccncc3)nc(N3CCCCC3)nc2cc1C#CCCN(C)C [Example 34] and COc1cc2c(NCc3ccncc3)nc(N3CCCCC3)nc2cc1C#CCCN(C)C [Example 32, 7-(4-(dimethylamino)-1-butyne-1-yl)-6-methoxy-2-(piperidine-1-yl)-N-(pyridine-4-ylmethyl)quinazoline-4-amine] fall in the same range of pIC50: 4.00 to 5.00 for the first, 4.00 to 5.00 for the second.

First: CNc1nc(N2CCCC2)nc2cc(C#CCCN3CCCC3)c(OC)cc12 [Example 81, 6-methoxy-N-methyl-2-(pyrrolidine-1-yl)-7-(4-(pyrrolidine-1-yl)-1-butyne-1-yl)quinazoline-4-amine]
Second: COc1cc2c(NC3CCN(C(C)C)CC3)nc(N3CC[C@H](F)C3)nc2cc1C#CCCN1CCCC1 [Example 57, (S)-2-(3-fluoropyrrolidine-1-yl)-N-(1-isopropylpiperidine-4-yl)-6-methoxy-7-(4-(pyrrolidine-1-yl)-1-butyne-1-yl)quinazoline-4-amine]
The pIC50 of the first is lower: 6.00 to 7.00 for the first, over 7.00 for the second.

Compared with CCCN1CCC(Nc2nc(N3CC[C@@H](F)C3)nc3cc(C#CCCN4CCCC4)c(OC)cc23)CC1 [Example 84, (R)-2-(3-fluoropyrrolidine-1-yl)-6-methoxy-N-(1-propylpiperidine-4-yl)-7-(4-(pyrrolidine-1-yl)-1-butyne-1-yl)quinazoline-4-amine], COc1cc2c(NCCN(C)C)nc(N3CCCCC3)nc2cc1C#CCCN(C)C [Example 28, N1-(7-(4-(dimethylamino)-1-butyne-1-yl)-6-methoxy-2-(piperidine-1-yl)quinazoline-4-yl)-N2,N2-dimethylethane-1,2-diamine] is lower in pIC50: over 7.00 for the first, 6.00 to 7.00 for the second.

Source: patent US20230365530A1, “QUINAZOLINE-2,4-DIAMINE DERIVATIVE AND PHARMACEUTICAL COMPOSITION FOR PREVENTING OR TREATING CANCER COMPRISING SAME AS ACTIVE INGREDIENT” (THE ASEAN FOUNDATION, priority 2020, published 2023)
